Measurements: patent US6967196B1, “Sulfonamide compounds and uses thereof” (Bristol-Myers Squibb Company, priority 1999, dated 2005)
Structures can show the parent of a compound that is named as a salt. Where two headings read alike, the source gives them in different places.

System: amyloid β production in transfected H4 (human neuroglioma) cells stably expressing APP constructs
Experiment: In vitro cell-based assay of inhibitors of amyloid β production (ELISA)
Settings: transfected H4 cells stably expressing APP, approximately 16 hours incubation, amyloid β in medium by ELISA, read-out: ACTIVITY (IC50, inhibition of amyloid β production)
Method in brief: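 Aβ secreted into the medium was determined by a two-antibody ELISA specific for the Aβ C-terminus, calibrated with known Aβ amounts. Before that, compounds (10-100 μM initially) were left on the cells for roughly 16 hours.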

Row | SMILES | IC50 (Homo sapiens, 16 h) | IC50 | also measured
1 | O=C(c1ccc(OC(F)(F)F)cc1)N1CCCCC1CCOc1ccccc1CN(c1cc(F)ccc1F)S(=O)(=O)c1ccc(Cl)cc1 (stereo not shown) [Example 1033, 4-chloro-N-(2,5-difluorophenyl)-N-[2-(2-{1-[4-(trifluoromethoxy)benzoyl]-2-piperidinyl}ethoxy)benzyl]benzenesulfonamide] | > 500 nM | – | –
2 | CS(=O)(=O)c1cccc(N(Cc2ccccc2OCCCN2CCCCC2)S(=O)(=O)c2ccc(Cl)cc2)c1 [Example 1036, 4-chloro-N-[3-(methylsulfonyl)phenyl]-N-{2-[3-(1-piperidinyl)propoxy]benzyl}benzenesulfonamide hydrochloride] | > 500 nM | – | –
3 | C[N+]1(CCCOc2ccccc2CN(c2cc(Cl)ccc2Cl)S(=O)(=O)c2ccc(Cl)cc2)CCCCC1 [Example 1038, 1-{3-[2-((2,5-dichloro[(4-chlorophenyl)sulfonyl]anilino}methyl)phenoxy]propyl}-1-methylpiperidinium iodide] | – | > 500 nM | –
4 | O=S(=O)(c1ccc(Cl)cc1)N(Cc1ccccc1OCCCBr)c1ccccc1 [Example 1039, N-[2-(3-bromopropoxy)benzyl]-4-chloro-N-phenylbenzenesulfonamide] | > 500 nM | – | –
5 | O=S(=O)(c1ccc(Cl)cc1)N(Cc1ccccc1C#CCCO)c1ccccc1 [Example 1040, 4-chloro-N-[2-(4-hydroxy-1-butynyl)benzyl}-N-phenylbenzenesulfonamide] | > 500 nM | – | –
6 | O=C(CCc1ccccc1CN(c1ccccc1)S(=O)(=O)c1ccccc1)N1CCCCC1 [Example 1041, N-{2-[3-oxo-3-(1-piperidinyl)propyl]benzyl}-N-phenylbenzenesulfonamide] | > 500 nM | – | –
7 | O=S(=O)(c1ccc(Cl)cc1)n1c(-c2ccccc2OCCCN2CCCCC2)c(Cl)c2ccccc21 [Example 1043, 3-chloro-1-[(4-chlorophenyl)sulfonyl]-2-{2-[3-(1-piperidinyl)propoxy]phenyl}-1H-indole trifluoroacetate] | > 500 nM | – | –
8 | C[C@H](c1ccccc1OCCCBr)N(c1cc(F)ccc1F)S(=O)(=O)c1ccc(Cl)cc1 [Example 1045, N-{(1R)-1-[2-(3-bromopropoxy)phenyl]ethyl}-4-chloro-N-(2,5-difluorophenyl)benzenesulfonamide] | > 500 nM | – | –
9 | CC(c1ccccc1OCCCn1ccnc1)N(c1cc(F)ccc1F)S(=O)(=O)c1ccc(Cl)cc1 (stereo not shown) [Example 1046, 4-chloro-N-(2,5-difluorophenyl)-N-(1-{2-[3-(1H-imidazol-1-yl)propoxy]phenyl}ethyl)benzenesulfonamide hydrochloride] | > 500 nM | – | –
10 | CC(c1ccccc1OCCCn1ccnc1)N(c1cc(F)ccc1F)S(=O)(=O)c1ccc(Cl)cc1 (stereo not shown) [Example 1047, 4-chloro-N-(2,5-difluorophenyl)-N-(1-{2-[3-(1H-imidazol-1-yl)propoxy]phenyl}ethyl)benzenesulfonamide] | – | > 500 nM | –
11 | C[C@@H](c1ccccc1OCCCn1ccnc1)N(c1cc(F)ccc1F)S(=O)(=O)c1ccc(Cl)cc1 [Example 1048, 4-chloro-N-(2,5-difluorophenyl)-N-((1S)-1-{2-[3-(1H-imidazol-1-yl)propoxy]phenyl}ethyl)benzenesulfonamide hydrochloride] | – | – | IC50 (hydrochloride): > 500 nM
12 | O=S(=O)(c1ccc(Cl)cc1)N(Cc1ccccc1OCC[S+]([O-])C1CCCCC1)c1cc(F)ccc1F (stereo not shown) [Example 1050, 4-chloro-N-{2-[2-(cyclohexylsulfinyl)ethoxy]benzy}-N-(2,5-difluorophenyl)benzenesulfonamide] | – | > 500 nM | –
13 | O=S(=O)(c1ccc(Cl)cc1)N(Cc1ccccc1C#CCn1ccnc1)c1cc(F)ccc1F [Example 1051, 4-chloro-N-(2,5-difluorophenyl)-N-{2-[3-(1H-imidazol-1-yl)-1-propynyl]benzyl}benzenesulfonamide hydrochloride] | > 500 nM | – | –
14 | CC(c1ccccc1O)N(c1cc(F)ccc1F)S(=O)(=O)c1ccc(Cl)cc1 (stereo not shown) [Example 1052, 4-chloro-N-(2,5-difluorophenyl)-N-[1-(2-hydroxyphenyl)ethyl]benzenesulfonamide] | > 500 nM | – | –
15 | O=S(=O)(c1ccc(Cl)cc1)N(Cc1ccccc1O)c1cc(F)ccc1F [Example 1054, 4-chloro-N-(2,5-difluorophenyl)-N-(2-hydroxybenzyl)benzenesulfonamide] | > 500 nM | – | –
16 | C[C@H](c1ccccc1CCO)N(c1cc(F)ccc1F)S(=O)(=O)c1ccc(Cl)cc1 [Example 1055, 4-chloro-N-(2,5-difluorophenyl)-N-{(1R)-1-[2-(2-hydroxyethyl)phenyl]ethyl}benzenesulfonamide] | > 500 nM | – | –
17 | C[C@H](c1ccccc1CCCn1ccnc1)N(c1cc(F)ccc1F)S(=O)(=O)c1ccc(Cl)cc1 [Example 1056, 4-chloro-N-(2,5-difluorophenyl)-N-((1R)-1-{2-[3-(1H-imidazol-1-yl)propyl]phenyl}ethyl)benzenesulfonamide hydrochloride] | > 500 nM | – | –

Row | SMILES | IC50 (Homo sapiens, 16 h) | IC50 | also measured
18 | C[C@H](c1ccccc1OCCCN(C)C(=O)C(C)(C)C)N(c1cc(F)ccc1F)S(=O)(=O)c1ccc(Cl)cc1 [Example 1059, N-{3-[2-((1R)-1-{[(4-chlorophenyl)sulfonyl]-2,5-difluoroanilino}ethyl)phenoxy]propyl}-N,2,2-trimethylpropanamide] | > 500 nM | – | –
19 | C[C@H](c1ccccc1OCCCN1CCCCC1)N(c1cc(F)ccc1F)S(=O)(=O)c1ccc(Cl)cc1 [Example 1061, 4-chloro-N-(2,5-difluorophenyl)-N-((1R)-1-{2-[3-(1-piperidinyl)propoxy]phenyl}ethyl)benzenesulfonamide hydrochloride] | > 500 nM | – | –
20 | C[C@H](c1ccccc1OCCCN1CCCCC1)N(c1cc(Cl)ccc1CO)S(=O)(=O)c1ccc(Cl)cc1 [Example 1062, 4-chloro-N-[5-chloro-2-(hydroxymethyl)phenyl]-N-((1R)-1-{2-[3-(1-piperidinyl)propoxy]phenyl}ethyl)benzenesulfonamide hydrochloride] | > 500 nM | – | –
21 | C[C@H](c1ccc(F)cc1CCCO)N(c1cc(F)ccc1F)S(=O)(=O)c1ccc(Cl)cc1 [Example 1063, 4-chloro-N-(2,5-difluorophenyl)-N-((1R)-1-[4-fluoro-2-(3-hydroxypropyl)phenyl]ethyl}benzenesulfonamide] | > 500 nM | – | –
22 | C[C@H](c1ccccc1CCCn1cncn1)N(c1cc(F)ccc1F)S(=O)(=O)c1ccc(Cl)cc1 [Example 1066, 4-chloro-N-(2,5-difluorophenyl)-N-((1R)-1-{2-[3-(1H-1,2,4-triazol-1-yl)propyl]phenyl}ethyl)benzenesulfonamide] | > 500 nM | – | –
23 | C[C@H](c1ccc(F)cc1CCCC(=O)O)N(c1cc(F)ccc1F)S(=O)(=O)c1ccc(Cl)cc1 [Example 1067, 4-[2-((1R)-1-{[(4-chlorophenyl)sulfonyl]-2,5-difluoroanilino}ethyl)-5-fluorophenyl]butanoic acid] | – | > 500 nM | –
24 | C[C@H](c1ccc(F)cc1CCCC(=O)O)N(c1cc(F)ccc1F)S(=O)(=O)c1ccc(Cl)cc1 [Example 1068, 4-[2-((1R)-1-{[(4-chlorophenyl)sulfonyl]-2,5-difluoroanilino}ethyl)-5-fluorophenyl]butanoic acid] | – | > 500 nM | –
25 | C[C@H](c1ccc(F)cc1CCCC(=O)O)N(c1cc(F)ccc1F)S(=O)(=O)c1ccc(Cl)cc1 [Example 1069, 4-[2-((1R)-1-{[(4-chlorophenyl)sulfonyl]-2,5-difluoroanilino}ethyl)-5-fluorophenyl]butanoic acid] | – | > 500 nM | –
26 | C[C@H](c1ccc(F)cc1CCCCS(=O)(=O)N1CCS(=O)(=O)CC1)N(c1cc(F)ccc1F)S(=O)(=O)c1ccc(Cl)cc1 [Example 1071] | – | > 500 nM | –
27 | C[C@H](c1ccc(F)cc1CCCC(=O)O)N(c1cc(F)ccc1F)S(=O)(=O)c1ccc(Cl)cc1 [Example 1072, 4-[2-((1R)-1-{[(4-chlorophenyl)sulfonyl]-2,5-difluoroanilino}ethyl)-5-fluorophenyl]butanoic acid] | – | > 500 nM | –
28 | C[C@H](c1ccc(F)cc1CCCC(=O)O)N(c1cc(F)ccc1F)S(=O)(=O)c1ccc(Cl)cc1 [Example 1073, 4-[2-((1R)-1-{[(4-chlorophenyl)sulfonyl]-2,5-difluoroanilino}ethyl)-5-fluorophenyl]butanoic acid] | – | > 500 nM | –
29 | C[C@H](c1ccc(CCCCNS(C)(=O)=O)cc1)N(c1cc(F)ccc1F)S(=O)(=O)c1ccc(Cl)cc1 [Example 1074] | – | > 500 nM | –
30 | C[C@@H](c1ccc(F)cc1CCCC(=O)O)N(c1cc(F)ccc1F)S(=O)(=O)c1ccc(Cl)cc1 [Example 1076, 4-[2-((1S)-1-{[(4-chlorophenyl)sulfonyl]-2,5-difluoroanilino}ethyl)-5-fluorophenyl]butanoic acid] | – | > 500 nM | –
31 | C[C@H](c1ccc(F)cc1CCCC(=O)NN(C)C)N(c1cc(F)ccc1F)S(=O)(=O)c1ccc(Cl)cc1 [Example 1078, 4-chloro-N-(2,5-difluorophenyl)-N-((1R)-1-{2-[4-(2,2-dimethylhydrazino)-4-oxobutyl]-4-fluorophenyl}ethyl)benzenesulfonamide] | > 500 nM | – | –
32 | C[C@H](c1ccc(F)cc1CCCC(=O)O)N(c1cc(F)ccc1F)S(=O)(=O)c1ccc(Cl)cc1 [Example 1080, 4-[2-((1R)-1-{[(4-chlorophenyl)sulfonyl]-2,5-difluoroanilino}ethyl)-5-fluorophenyl]butanoic acid] | – | > 500 nM | –
33 | O=S(=O)(c1ccc(Cl)cc1)N(Cc1ccccc1O)c1ccccc1 [Example 1081, 4-chloro-N-(2-hydroxybenzyl)-N-phenylbenzenesulfonamide] | > 10000 nM | – | –
34 | CN(C)CCCOc1ccccc1CN(c1ccccc1)S(C)(=O)=O [Example 1082, N-{2-[3-(dimethylamino)propoxy]benzyl}-N-phenylmethanesulfonamide] | > 10000 nM | – | –
